Values quoted from earlier work, collected in patent publication US4256727A, “Synthesis and use of diagnostic radio-pharmaceuticals comprising radioactive isotopes of bromine with dyes” (The University of Kentucky Research Foundation, priority 1978, dated 1981).

Key:
[1] = rate at which the drug is cleared from the blood after injection
[2] = formulated with propylene glycol and stored at refrigerated temperatures

stability of the product [2]	SMILES	half life of clearance from the blood [1] [min]
	O=S1(=O)OC(c2cc(Br)c(O)c(Br)c2)(c2cc(Br)c(O)c(Br)c2)c2ccccc21 [bromphenol blue, 4,4'-(3H-2,1,-benzoxathiol-3-ylidene)bis[2,6-dibromophenol]S,S,-dioxide]	1.5
stable	O=C1OC2(c3cc(I)c(O)c(I)c3Oc3c2cc(I)c(O)c3I)c2c(Cl)c(Cl)c(Cl)c(Cl)c21 [Rose Bengal]	8 to 10
